Reference: US10463710B2, “Short synthetic peptide for the treatment and/or prophylaxis of autoimmune and inflammatory disorders” (MacKay Memorial Hospital, priority 2015, dated 2019)
Entries after “also recorded” stand apart in the source; their conditions may differ.

Tests used:
[1] = system: Raw264.7 macrophage cells; test: in vitro; type: cell-based, murine; conditions: Example 1 results
in vitro = type: cell-based, murine; conditions: mouse, Raw264.7 cell viability
[2] = system: IMQ-induced psoriasis-like skin inflammation; test: Mouse model of IMQ-induced psoriasis-like skin inflammation; type: in vivo, BALB/c mice; conditions: topical Clobetasol 0.02%
Description: All experimental procedures were approved by the Mackay Memorial Hospital Animal Care and Uses Committee and conducted according to national animal welfare regulations. Psoriasis-like skin inflammation was created by treating mouse skin with Imiquimod (IMQ) in accordance with the procedures described by van der Fits et al (J Immunol. (2009), 182, 5836-5845). Accordingly, each BALB/c mice (8 weeks old) received a daily topical dose of 62.5 mg of commercially available IMQ cream (5%) on the shaved back and the right ear for 6 consecutive days; whereas the control mice (normal group) were treated with a control cream. For treatment, 7-mer analogue was mixed with IMQ cream to a concentration 100 μM.
Keratinocyte proliferation was determined by 5-bromo-2′-deoxyuridine (BrdU) incorporation. BrdU (Sigma-Aldrich) was reconstituted in DMSO as a stock solution of 80 mM. 10 μl of BrdU mixed with 90 μl of PBS was intraperitoneally injected into each mouse for 24 hr prior to euthanasia. Back skin was fixed overnight in 4% paraformaldehyde and embedded in paraffin for immunohistochemistry.
In this example, the efficacy of the present synthetic peptides of Example 1 on IMQ-induced psoriasis-like skin inflammation was investigated. To this purpose, animals (8-week-old mice) were given a daily topical dose of IMQ cream on the shaved back for six consecutive days, so as to induce psoriasis-like skin inflammation and desquamation (FIG. 1; left panel).
Psoriasis is a disease resulted from abnormal keratinocyte proliferation, thus the effects of the present synthetic peptides on the proliferation of keratinocytes were also monitored in accordance with procedures described in the section of “Materials and Methods”. Results are illustrated in FIG. 2.

Row | SMILES | bioactivity / inhibitory activity relative to 7-mer (in words) [1] | viability at 24 h, 20 μM (in vitro) [%] | desquamation formation ([2]; FIG. 1) | skin atrophy ([2]; entire back of test animals)
1 | CC(=O)N[C@@H](CC(=O)O)C(=O)N[C@H](C(=O)N[C@@H](Cc1ccccc1)C(=O)N[C@@H](CCCNC(=N)N)C(=O)N[C@H](C(=O)N[C@@H](CCCNC(=N)N)C(=O)N[C@H](C(N)=O)[C@@H](C)O)C(C)C)C(C)C [7-mer VFT, NH2-Asp-Val-Phe-Arg-Val-Arg-Thr-COOH] | could sustain 7-mer bioactivity, only partly; also recorded: relatively the same bioactivity that is similar to the 7-mer | 71.1 ± 2.48 | – | –
2 | CC[C@H](C)[C@H](NC(=O)[C@H](CCCNC(=N)N)NC(=O)[C@H](Cc1c[nH]c2ccccc12)NC(=O)[C@H](CC(C)C)NC(=O)[C@H](CC(=O)O)NC(C)=O)C(=O)N[C@@H](CCCNC(=N)N)C(=O)N[C@@H](CO)C(N)=O [7-mer WI, NH2-Asp-Leu-Trp-Arg-Ile-Arg-Ser-COOH] | could sustain 7-mer bioactivity, only partly | 77.9 ± 2.87 | – | –
3 | C[C@H]1C[C@H]2[C@@H]3CCC4=CC(=O)C=C[C@]4(C)[C@@]3(F)[C@@H](O)C[C@]2(C)[C@@]1(O)C(=O)CCl [Clobetasol, reference compound] | – | – | ameliorated desquamation formation | caused skin atrophy
